Earlier results in patent US20250295594A1, “ENTERAL SUSTAINED-RELEASE SUGAR ALCOHOL ADDITIVE AND PREPARATION METHOD AND APPLICATION THEREOF” (ZHEJIANG HUAKANG PHARMACEUTICAL CO., LTD., priority 2020, published 2025).

Settings: existing experimental data, unformulated sugar / sugar alcohol

absorption rate of the small intestine [%]	SMILES
70	O=C[C@H](O)[C@@H](O)[C@@H](O)CO [arabinose, L-arabinose]
60	OC[C@@H](O)[C@H](O)[C@@H](O)CO [xylitol]
